Patent US10870647B2, “Imidazopyridine derivative, method for preparing same, and pharmaceutical composition containing same as active ingredient for preventing or treating cancer” (DAEGU-GYEONGBUK MEDICAL INNOVATION FOUNDATION, priority 2016, dated 2020)

Assays:
Test in all cases: Kinase selectivity, scanMAX Kinase assay panel (DiscoverX), % control at 1 uM
Assay type in all cases: binding
[1] = biological target: T1, scanMAX Kinase assay panel (Homo sapiens, UniProt P36888, R834Q); settings: FLT3 (R834Q); 1 uM; read-out: Percent Control (%)
T1 construct: purchased DiscoverX
T1 sequence (P36888 27-993 R834Q): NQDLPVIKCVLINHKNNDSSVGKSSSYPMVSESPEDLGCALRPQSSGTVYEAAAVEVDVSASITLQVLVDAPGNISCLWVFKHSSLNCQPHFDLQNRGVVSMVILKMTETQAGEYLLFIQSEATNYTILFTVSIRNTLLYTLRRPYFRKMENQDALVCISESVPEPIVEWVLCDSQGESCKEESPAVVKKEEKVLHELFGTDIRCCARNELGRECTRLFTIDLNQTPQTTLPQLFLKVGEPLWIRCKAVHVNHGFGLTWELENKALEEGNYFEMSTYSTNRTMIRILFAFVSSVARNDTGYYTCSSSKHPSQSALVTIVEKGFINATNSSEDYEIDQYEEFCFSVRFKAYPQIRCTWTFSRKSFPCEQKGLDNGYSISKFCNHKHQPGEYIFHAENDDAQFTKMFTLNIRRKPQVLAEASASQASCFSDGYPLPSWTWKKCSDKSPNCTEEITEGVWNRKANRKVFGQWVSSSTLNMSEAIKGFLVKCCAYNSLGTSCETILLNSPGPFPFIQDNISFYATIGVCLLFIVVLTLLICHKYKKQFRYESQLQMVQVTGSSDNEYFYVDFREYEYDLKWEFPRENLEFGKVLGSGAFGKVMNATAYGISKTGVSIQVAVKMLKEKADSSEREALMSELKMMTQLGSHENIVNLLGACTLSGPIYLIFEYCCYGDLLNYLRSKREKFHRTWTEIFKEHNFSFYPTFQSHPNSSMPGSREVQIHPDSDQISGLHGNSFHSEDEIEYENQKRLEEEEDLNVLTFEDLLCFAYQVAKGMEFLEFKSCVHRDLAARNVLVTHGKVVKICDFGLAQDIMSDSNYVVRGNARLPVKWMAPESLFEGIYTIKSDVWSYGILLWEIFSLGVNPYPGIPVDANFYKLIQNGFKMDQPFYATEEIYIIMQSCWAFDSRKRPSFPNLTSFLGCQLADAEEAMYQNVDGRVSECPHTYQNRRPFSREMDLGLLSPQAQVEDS
Method in brief: (§1)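 Compounds were tested at 1 uM in DMSO against each enzyme in the panel. Percent control was calculated as (compound − positive control)/(negative control − positive control) × 100, and a compound was scored active on a kinase when this value fell below 35.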

[2] = biological target: T2, scanMAX Kinase assay panel (Homo sapiens, UniProt Q99640); settings: PKMYT1; 1 uM; read-out: Percent Control (%)
T2 construct: purchased DiscoverX
T2 sequence (Q99640 1-499): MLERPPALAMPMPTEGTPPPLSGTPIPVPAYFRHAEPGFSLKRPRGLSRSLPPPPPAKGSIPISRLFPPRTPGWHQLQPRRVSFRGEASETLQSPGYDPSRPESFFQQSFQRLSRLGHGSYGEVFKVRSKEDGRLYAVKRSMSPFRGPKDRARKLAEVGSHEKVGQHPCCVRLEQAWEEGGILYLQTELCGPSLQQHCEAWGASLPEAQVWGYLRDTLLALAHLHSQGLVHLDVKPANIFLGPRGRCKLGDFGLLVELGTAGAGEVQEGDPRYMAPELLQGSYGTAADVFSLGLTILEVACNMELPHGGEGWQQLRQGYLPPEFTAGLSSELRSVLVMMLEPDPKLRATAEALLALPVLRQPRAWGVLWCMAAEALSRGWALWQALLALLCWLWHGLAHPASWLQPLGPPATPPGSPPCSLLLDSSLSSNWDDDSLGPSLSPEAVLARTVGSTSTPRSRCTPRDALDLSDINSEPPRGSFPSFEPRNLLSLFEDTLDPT
Method in brief: as §1

[3] = biological target: T3, scanMAX Kinase assay panel (Homo sapiens, UniProt Q9NRH2); settings: SNRK; 1 uM; read-out: Percent Control (%)
T3 construct: purchased DiscoverX
T3 sequence (Q9NRH2 1-765): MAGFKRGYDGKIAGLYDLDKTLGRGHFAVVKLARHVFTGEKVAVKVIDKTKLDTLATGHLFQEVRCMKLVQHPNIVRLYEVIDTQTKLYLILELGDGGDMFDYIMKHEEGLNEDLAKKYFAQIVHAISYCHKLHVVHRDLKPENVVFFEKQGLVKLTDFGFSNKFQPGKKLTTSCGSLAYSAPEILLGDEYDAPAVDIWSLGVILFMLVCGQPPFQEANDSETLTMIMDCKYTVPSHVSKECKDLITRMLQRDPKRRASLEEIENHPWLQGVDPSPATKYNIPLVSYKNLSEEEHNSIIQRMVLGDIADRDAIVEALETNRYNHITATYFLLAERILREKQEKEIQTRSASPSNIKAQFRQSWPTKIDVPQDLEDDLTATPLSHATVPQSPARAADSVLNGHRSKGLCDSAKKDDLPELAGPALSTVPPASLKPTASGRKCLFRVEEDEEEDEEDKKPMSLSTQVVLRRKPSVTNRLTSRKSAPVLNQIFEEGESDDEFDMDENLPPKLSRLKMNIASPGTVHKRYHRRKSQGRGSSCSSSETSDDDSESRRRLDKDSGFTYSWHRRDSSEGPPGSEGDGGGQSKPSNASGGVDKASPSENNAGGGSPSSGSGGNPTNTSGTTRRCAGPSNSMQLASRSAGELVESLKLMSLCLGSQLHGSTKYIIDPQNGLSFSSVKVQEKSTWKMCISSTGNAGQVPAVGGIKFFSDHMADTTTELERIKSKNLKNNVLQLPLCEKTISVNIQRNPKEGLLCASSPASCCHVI
Method in brief: as §1

[4] = biological target: T4, scanMAX Kinase assay panel (Homo sapiens, UniProt Q9Y5S2); settings: MRCKB; 1 uM; read-out: Percent Control (%)
T4 construct: purchased DiscoverX
Method in brief: as §1

T4 sequence (Q9Y5S2 whole entry): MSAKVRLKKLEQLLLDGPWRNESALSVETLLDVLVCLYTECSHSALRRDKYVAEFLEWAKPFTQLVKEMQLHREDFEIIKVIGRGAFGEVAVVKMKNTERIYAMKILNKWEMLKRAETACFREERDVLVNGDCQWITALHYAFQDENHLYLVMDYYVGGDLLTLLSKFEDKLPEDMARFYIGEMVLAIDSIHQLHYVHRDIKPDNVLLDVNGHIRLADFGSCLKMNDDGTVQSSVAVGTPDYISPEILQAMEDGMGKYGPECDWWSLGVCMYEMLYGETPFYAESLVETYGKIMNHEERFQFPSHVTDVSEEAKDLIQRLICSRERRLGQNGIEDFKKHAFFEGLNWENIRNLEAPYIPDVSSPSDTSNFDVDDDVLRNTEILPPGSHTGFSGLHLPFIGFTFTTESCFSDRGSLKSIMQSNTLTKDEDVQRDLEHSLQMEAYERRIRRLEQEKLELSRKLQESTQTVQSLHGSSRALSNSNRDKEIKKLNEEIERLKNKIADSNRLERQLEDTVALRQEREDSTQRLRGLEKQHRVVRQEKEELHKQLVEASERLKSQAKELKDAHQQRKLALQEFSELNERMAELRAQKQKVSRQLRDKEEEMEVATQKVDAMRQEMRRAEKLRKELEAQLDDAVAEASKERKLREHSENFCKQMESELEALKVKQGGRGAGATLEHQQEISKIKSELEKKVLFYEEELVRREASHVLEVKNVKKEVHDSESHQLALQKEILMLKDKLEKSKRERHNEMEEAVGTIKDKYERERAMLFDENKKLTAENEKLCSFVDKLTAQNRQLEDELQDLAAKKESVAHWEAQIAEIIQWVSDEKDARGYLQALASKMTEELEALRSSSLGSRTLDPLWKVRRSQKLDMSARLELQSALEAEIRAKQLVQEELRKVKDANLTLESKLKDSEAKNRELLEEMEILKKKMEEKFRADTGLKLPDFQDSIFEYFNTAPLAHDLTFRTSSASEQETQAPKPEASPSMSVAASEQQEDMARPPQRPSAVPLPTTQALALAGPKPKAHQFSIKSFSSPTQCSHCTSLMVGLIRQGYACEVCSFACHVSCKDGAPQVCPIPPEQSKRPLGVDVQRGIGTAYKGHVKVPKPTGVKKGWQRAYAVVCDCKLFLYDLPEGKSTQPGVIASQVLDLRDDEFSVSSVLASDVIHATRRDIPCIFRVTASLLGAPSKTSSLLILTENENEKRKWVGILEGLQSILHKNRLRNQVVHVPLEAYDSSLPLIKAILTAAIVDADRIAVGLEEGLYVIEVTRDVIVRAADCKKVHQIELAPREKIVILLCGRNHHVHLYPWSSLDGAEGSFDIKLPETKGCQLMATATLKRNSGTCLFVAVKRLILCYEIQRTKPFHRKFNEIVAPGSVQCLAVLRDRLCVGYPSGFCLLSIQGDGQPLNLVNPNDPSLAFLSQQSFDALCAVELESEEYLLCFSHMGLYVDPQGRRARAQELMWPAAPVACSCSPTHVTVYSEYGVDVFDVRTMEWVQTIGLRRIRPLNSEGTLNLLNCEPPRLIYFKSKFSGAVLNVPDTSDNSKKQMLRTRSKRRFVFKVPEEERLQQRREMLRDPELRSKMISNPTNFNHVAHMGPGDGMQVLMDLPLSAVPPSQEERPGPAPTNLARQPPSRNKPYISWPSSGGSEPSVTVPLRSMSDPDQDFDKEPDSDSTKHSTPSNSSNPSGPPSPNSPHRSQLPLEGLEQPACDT

SMILES | remaining binding at 1 µM [1] [%] | remaining binding at 1 µM [2] [%] | remaining binding at 1 µM [3] [%] | remaining binding at 1 µM [4] [%]
Cc1ccc(C(=O)Nc2ccc(CN3CCN(C)CC3)c(C(F)(F)F)c2)cc1C#Cc1cnc2c(Nc3cnn(C)c3)cccn12 [Example 1, 4-methyl-3-((8-((1-methyl-1H-pyrazol-4-yl)amino)imidazo[1,2-a]pyridin-3-yl)ethynyl)-N-(4-((4-methylpiperazin-1-yl)methyl)-3-(trifluoromethyl)phenyl)benzamide] | 3 | 93 | 84 | 99
Cc1cn(-c2cc(NC(=O)c3ccc(C)c(C#Cc4cnc5c(Nc6cnn(C)c6)cccn45)c3)cc(C(F)(F)F)c2)cn1 [Example 12, 4-methyl-N-(3-(4-methyl-1H-imidazol-1-yl)-5-(trifluoromethyl)phenyl)-3-((8-((1-methyl-1H-pyrazol-4-yl)amino)imidazo[1,2-a]pyridin-3-yl)ethynyl)benzamide] | 62 | 98 | 100 | 94
Cc1ccc(NC(=O)C2(C(=O)Nc3ccc(F)cc3)CC2)cc1C#Cc1cnc2c(Nc3cnn(C(C)C)c3)cccn12 [Example 78] | 100 | 90 | 95 | 100
